Source: article PMC11077868, “Rutinosides-derived from Sarocladium strictum 6-O-α-rhamnosyl-β-glucosidase show enhanced anti-tumoral activity in pancreatic cancer cells” (Microbial Cell Factories, 2024)

Key:
[1] = test system: T1, 6-O-α-rhamnosyl-β-glucosidase (αRβG); assay: hydrolysis; reducing sugars by […],4-dinitrosalicylic acid, Michaelis-Menten fit; format: biochemical, Sarocladium strictum; conditions: 50 mM sodium phosphate pH 6.0, 60 °C, 1 h
T1 construct: native, purified from culture supernatant of S. strictum; 99 kDa by SDS-PAGE; tryptic peptide TIHETYLAPWYDGVK matched to a 755-residue putative glycoside hydrolase (21-residue signal peptide) of another strain, A. strictum DS1bioAY4a, JGI ID 1029425

[2] = test system: T1, 6-O-α-rhamnosyl-β-glucosidase (αRβG); assay: hydrolysis; product release, Michaelis-Menten fit; format: biochemical, Sarocladium strictum; conditions: 50 mM sodium phosphate pH 6.0, 60 °C, 1 h

| Km [1] [µM] | Km [2] [µM] | SMILES |
| --- | --- | --- |
| 700 ± 120 | – | COc1ccc([C@@H]2CC(=O)c3c(O)cc(O[C@@H]4O[C@H](CO[C@@H]5O[C@@H](C)[C@H](O)[C@@H](O)[C@H]5O)[C@@H](O)[C@H](O)[C@H]4O)cc3O2)cc1O [hesperidin] |
| – | 473 ± 4 | C[C@@H]1O[C@@H](OC[C@H]2O[C@@H](Oc3c(-c4ccc(O)c(O)c4)oc4cc(O)cc(O)c4c3=O)[C@H](O)[C@@H](O)[C@@H]2O)[C@H](O)[C@H](O)[C@H]1O [rutin] |
